According to ChEMBL document CHEMBL3507680, “University of Dundee, Gates Library screen for HepG2 cell viability”:

assay: Human HepG2 cell viability assay in 384 well format; type: toxicity, cell-based; design: dose 125 nL, time 70.5 hour; cytotoxicity at 70.5 h: concentration not given beside the values; conditions: HepG2 cells, read-out: Inhibition

Row | Structure (SMILES) | cytotoxicity at 70.5 h [%]
1 | CC(C(=O)N1CCN(CCOc2ccccc2)CC1)n1cc(Cl)cn1 (centres undefined) | -9.22
2 | CNC(=O)CN1CCC(c2nn(C)c(=O)n2-c2ccccc2)CC1 | -4.2
3 | CC(C)(C)c1ncc(C(=O)NCCS(N)(=O)=O)s1 | -1.37
4 | COc1ccc(CN2CCN(CCn3ccnc3)CC2)cc1F | -13.3
5 | Cc1cc(C)n(CC2CCCCN2CC(=O)Nc2cccnc2)n1 (centres undefined) | 17.8
6 | COCC(=O)NCCc1nc(N(C)C)ncc1-c1ccncc1 | -6.86
7 | CCc1nc2n(n1)CC(Nc1nc(C)cc(N(C)C)n1)CC2 (centres undefined) | -6.31
8 | CN(C)Cc1nnc(C2CCN(c3ncccn3)CC2)n1C1CC1 | 12.1
9 | CN1CCCCc2c1nc1c(c2N)CCC1.O=C(O)c1cc([N+](=O)[O-])ccc1Cl | -11.7
10 | O=C(NCc1cnc2n1CCN(Cc1nccs1)C2)c1ccno1 | -3.38
11 | CCN(CC)CCn1cc(NC(=O)c2ccccc2OC)cn1 | -12.2
12 | CCn1c(C)nnc1CN(C)C1CCN(CCS(=O)(=O)CC)C1 (centres undefined) | -5.35
13 | Cc1noc(C)c1CN1C(=O)[C@H]2CC[C@@H]1CN(Cc1cccnc1N)C2 | 16.1
14 | CCCOCCNc1nc2c(s1)c(C)nn2C | 24.8
15 | c1ccc(-c2cc(CN3CCCCCC3c3ccco3)on2)nc1 (centres undefined) | -4.66
16 | COCCOCC(=O)Nc1ccc(F)cc1C | 11.3
17 | Cc1noc2nc(C3CCN(Cc4cccnc4)CC3)cc(C(F)F)c12 | -3.96
18 | c1cncc(OC[C@]23COC[C@H]2CN(Cc2cccs2)C3)c1 | -7.3
19 | COc1ccccc1CNC(C)c1cnc2cc(C)nn2c1C (centres undefined) | -1.5
20 | COc1ncccc1CNc1cc(N2CCCC2CO)ncn1 (centres undefined) | -12
21 | O=C(Cc1ccc2c(c1)CCCC2)Nc1cccnc1N1CCSCC1 | -7.86
22 | CN(Cc1ccno1)C(=O)c1cccc(CC2CCNCC2)c1 | 6.56
23 | Cc1nc(CN2CCCN(Cc3nccn3C(C)C)CC2)no1 | -15.2

Row | Structure (SMILES) | cytotoxicity at 70.5 h [%]
24 | CCOCC(=O)Nc1ccc(-n2ccc(C(N)=O)n2)cc1 | -5.89
25 | CN(Cc1ccc(F)cc1)Cc1cc2c(cc1Br)OCCO2 | -8.04
26 | CC(C)OCCC(=O)NCC(c1c(F)cccc1F)N(C)C (centres undefined) | 22.3
27 | COc1ccc(C2OC(COc3ccccc3Br)=NN2C(C)=O)cc1 (centres undefined) | -6.79
28 | CNC(=O)c1ccc(Cn2ccnc2S(C)(=O)=O)cc1 | -0.546
29 | Cc1oc(C(=O)O)cc1S(=O)(=O)Nc1cc(Cl)ccc1F | -7.55
30 | COc1ccc(F)c(NCC(C)(C)S(C)(=O)=O)c1 | -4.68
31 | CC(NC(=O)CN(C)S(C)(=O)=O)c1nnc2n1CCCCC2 (centres undefined) | 48.1
32 | C1CCC(c2nc3c(c(N4CCN5CCCC5C4)n2)CCNCC3)C1 (centres undefined) | -5.97
33 | CCC(C)(C)n1nnnc1C(c1cccs1)N1CCc2ccccc21 (centres undefined) | -1.64
34 | Cc1nc(CN2CCC3(CC2)NC(=O)CC3c2cccnc2)cs1 (centres undefined) | -8.17
35 | CC(C)(C)c1ncc(C(=O)NCCNC(=O)c2cccs2)s1 | 12.5
36 | CCN1CCC(CNC(=O)C2(c3cccc(C)c3)CC2)C1 (centres undefined) | 0.0668
37 | Cc1cc(CN(C)C(=O)NCc2ccnc(N(C)C)c2)no1 | -1.17
38 | CN(Cc1ccccc1)C1COC2(CCN(Cc3nccs3)CC2)C1 (centres undefined) | 10
39 | COc1cc(Br)c(S(=O)(=O)NC(=O)C(C)OC)cc1OC (centres undefined) | -6.11
40 | COCC1CC2(CCN(c3cc(OC)ncn3)CC2)CN1C(C)C (centres undefined) | -8.64
41 | CC(C)c1ncc(S(C)(=O)=O)c(C2CCCNC2)n1 (centres undefined) | -7.47
42 | O=C(NCCn1ccnc1)c1ccn(-c2ccccc2F)n1 | 13.4
43 | CCn1ccc(-c2cc(C(=O)O)n3ncc(Cl)c3n2)n1 | -10.2
44 | CC(C)c1ncc2c(n1)CN(Cc1cccc(C#N)c1)CC2 | 4.14
45 | CN(CCc1cn[nH]c1)C(=O)C1CC(=O)N(Cc2ccccn2)C1 (centres undefined) | 6.7
46 | CCCn1ncc(CN(Cc2cccnc2)Cc2cccs2)c1C | 21.4

Row | Structure (SMILES) | cytotoxicity at 70.5 h [%]
47 | O=C(NCCOCCO)c1cccnc1Oc1ccc(Cl)cc1 | 16.6
48 | FC(F)(F)c1ccnc(N2C[C@H]3CCN(c4cccnc4)C[C@H]3C2)n1 | -17.5
49 | c1coc(CN2CCO[C@H]3[C@H](OCC4CCCC4)CC[C@@H]32)c1 | 11.8
50 | Cc1ccc(CNC(=O)Cn2nc(-c3ccc(F)cc3)oc2=O)cc1F | -7.42
51 | CN1CCCC1CCn1ccnc1-c1ccc2ccccc2n1 (centres undefined) | 1.35
52 | Cc1cc(C(=O)N2CCCC2c2nc(O)cc(C(C)C)n2)on1 (centres undefined) | -5.06
53 | CCn1nnnc1-c1cccc(NCc2nc(C)ccc2O)c1 | -6.25
54 | Nc1nnc(CCCNc2ncnc3c2CCN(C(=O)C2CC2)C3)s1 | -12
55 | CCN(CC)CCSc1nnc(N2CCN(c3ccccc3)CC2)s1 | -2.44
56 | Cn1cc(C2=CCN(CCCOc3ccc(C(N)=O)cc3)CC2)cn1 | -11.2
57 | Cc1nc2c(c(NCc3ccccc3)n1)CCN(C(=O)C1CCC1)CC2 | -6.11
58 | CC(C)c1nc(CN(C)C(=O)c2ccc(CN3CCCCC3)cc2)cs1 | -7.38
59 | O=C1NC2(CCN(CC(=O)N3CCOCC3)CC2)Nc2ccc(Br)cc21 | -2.15
60 | CC1(C(=O)N2CCOCC2)CN(C2CCCCC2)CCO1 (centres undefined) | 0.715
61 | Cc1nc(C)c2c(n1)CCN(Cc1ccsc1)CC2 | -0.781
62 | CC(C)NC(=O)N1CCC2(COCc3cnc(-c4ccccc4)nc32)C1 (centres undefined) | 9.3
63 | COCCN1C[C@@H]2[C@@H](OC)CCN(C(=O)c3cccc(OC)c3)[C@@H]2C1 | 2
64 | CN(C)c1ncc(CNS(=O)(=O)c2cccc3ccccc23)n1C | -11.7
65 | CN(CC1CC1)c1ccc2ccc(C(=O)NCCc3ccccc3)cn12 | -12.6
66 | O=C(CN1CCCCC1Cn1cccn1)NC1CCOCC1 (centres undefined) | -6.42
67 | COCc1nc(C(=O)N2CCCC(n3nc(C)nc3C)C2)cs1 (centres undefined) | 28.1
68 | CCCc1noc(CCC(=O)N2CCCC2c2ccc(OC)cc2)n1 (centres undefined) | -16.8
69 | Cc1cccc(CO[C@@H]2CC[C@H]3[C@H]2OCCN3Cc2ccsc2)n1 | -12.2

Row | Structure (SMILES) | cytotoxicity at 70.5 h [%]
70 | O=C(NCc1ccco1)c1nn(C2CCS(=O)(=O)C2)c2c1CCCC2 (centres undefined) | -10.4
71 | Cc1oncc1C(=O)NCC1(O)CCc2ccccc2C1 (centres undefined) | 0.91
72 | COc1cccc(CCNC(=O)CN2CCCC2c2noc(C)n2)c1 (centres undefined) | -6.83
73 | O=C(Nc1cnn(CCN2CCOCC2)c1)c1ccccc1Cl | 0.235
74 | CSCC(=O)N1CCc2c(cnc(C)c2-c2noc(-c3ccco3)n2)C1 | -17
75 | O=C(Nc1ccccc1)NC1CCN(C2CCOC2)CC1 (centres undefined) | 5.7
76 | Cc1cnn(CC2CCCN2C(=O)Cc2ccc(C)nc2)c1 (centres undefined) | -7.79
77 | O=C1NCCN(CC2CC2)C12CCN(Cc1ccccc1)CC2 | 13.9
78 | CN1C(=O)CC(c2cnn(C)c2)C12CCN(C(=O)c1ccno1)CC2 (centres undefined) | -12
79 | Cc1ccc(S(C)(=O)=O)cc1C(=O)NS(C)(=O)=O | -7.69
80 | COc1ccc(CNC(=O)NCCc2nc(C)c(C)s2)cn1 | -3.08
81 | CNc1cc(N2CCCC2CNCc2cccs2)ncn1 (centres undefined) | -1.51
82 | CC1(C)CN(Cc2cc(C3CCCCC3)no2)CC[C@]1(C)O | -12.5
83 | CCCc1noc(CN2CCCCC2Cn2cncn2)n1 (centres undefined) | -7.74
84 | CCC(CC)C(=O)NC1CCCc2nc(N3CCOCC3)ncc21 (centres undefined) | -4.12
85 | Cc1ccc(C)c(S(=O)(=O)CCN2CCCC2Cn2cncn2)c1 (centres undefined) | -14.3
86 | O=C(c1cc(Cl)c2c(c1)OCCO2)N1CCCC(n2cncn2)C1 (centres undefined) | -10.2
87 | CC(NC(=O)c1cc(-c2cccc(Cl)c2)no1)C(=O)N1CCCC1 (centres undefined) | -10.6
88 | CC(C)c1nc(CN(C)C2CCN(CCc3ccncc3)C2)no1 (centres undefined) | -2.44
89 | CCOCCn1nc(C)cc1C(=O)N1CC(C)(C)[C@@](C)(O)C1 | -2.57
90 | CC1=CCN(C(=O)Nc2ccccc2N2CCOC2=O)CC1 | 0.848
91 | O=C(CCn1cncn1)NCC1CCS(=O)(=O)C1 (centres undefined) | -12.4
92 | NC(=O)Nc1cc(Br)cnc1OCC(F)(F)F | -7.02

Row | Structure (SMILES) | cytotoxicity at 70.5 h [%]
93 | Cc1ccccc1CN(C)C(=O)c1cc(C2CCCN2C)ccn1 (centres undefined) | 10.5
94 | Cc1ncc(CNC(=O)CCc2cccc(F)c2)c(C2CCCN2C)n1 (centres undefined) | -2.51
95 | c1cn(-c2cncc(C3CCNCC3)n2)cn1 | -6.9
96 | Cc1ccc(-c2ncc(CNc3cnccc3CO)s2)cc1 | 3.65
97 | COC(=O)N1CCC(Nc2ccc(Cl)c(C#N)n2)CC1 | -0.879
98 | CC/C=C(/C)C(=O)NCc1ccc(OC)nc1 | -13.3
99 | Cc1cc(C(=O)N2C[C@@H](C(=O)O)[C@H](c3ccccc3C)C2)c(C)o1 | 13.2
100 | CC(C)c1nnc(CN2CC(n3cccn3)C2)o1 | -6.56
101 | CCOC(C)c1nc(Cn2cc(-n3cccc3)cn2)cs1 (centres undefined) | -10.1
102 | CS(=O)(=O)N[C@@H]1CCN(Cc2cccs2)[C@H]1Cc1cccnc1 | -18.1
103 | CC(=O)N[C@@H]1CN(C(=O)c2cc3ccccc3[nH]2)C[C@H]1c1ccc(C)o1 | -9.58
104 | CCC(=O)N1CCN(c2nc(C)nc3c(C)nn(C)c23)CC1 | -6.94
105 | CC(C)C1CC(=O)Nc2c1cnn2Cc1ccco1 (centres undefined) | -15.8
106 | CCNc1ncc(C(=O)N(C)Cc2nc3cc(Cl)ccc3[nH]2)cn1 | -13.7
107 | COCC1(C(=O)N[C@H]2CN(c3noc(C)n3)C[C@@H]2C2CC2)CCC1 | -1.28
108 | c1nc(N2CCCC(Cn3cncn3)C2)c2sccc2n1 (centres undefined) | -2.8
109 | COc1ccccc1C1SCC(=O)Nc2c1c(=O)[nH]n2C1CCOCC1 (centres undefined) | -24.1
110 | CCc1nc(CN2CCCC2C(=O)NC2CC2)cs1 (centres undefined) | -7.43
111 | CC(=O)N1CCC2(CC1)CCN(S(=O)(=O)c1ccccc1)C2 | 29.2
112 | CC(c1ccncc1)N(CCN(C)C)C(=O)Nc1ccc(Cl)c(Cl)c1 (centres undefined) | -11.5
113 | O=C(CCc1ccco1)N1CCC(Oc2ccccc2)(C(=O)O)CC1 | 2.91
114 | COc1ccc(-c2nnsc2C(=O)N2CCC(C(N)=O)CC2)cc1 | -13.8
